tested on: JAK1-dependent STAT6 phosphorylation downstream of IL-13 stimulation in TF-1 human erythroleukemia cells; assay: cells; conditions: TF-1, read-out: IL-13-pSTAT6 IC50

`CCOC(=O)N1CC=C(c2cccn3nc(Nc4ccc(C(=O)N5CC6(CCCNC6)C5)cc4)nc23)CC1` [Example 2-185, ethyl 4-[2-[4-(2,8-diazaspiro[3,5]nonane-2-carbonyl)anilino]-[l,2,4]triazolo[l,5-a]pyridin-8-yl]-3,6-dihydro-2H-pyridine-1-carboxylate] and `O=C(CCC(F)(F)F)N1CC=C(c2cccn3nc(Nc4ccc(C(=O)N5CC6(CCCNC6)C5)cc4)nc23)CC1` [Example 2-186, 1-[4-[2-[4-(2,8-diazaspiro[3.5]nonane-2-carbonyl)anilino]-[1,2,4]triazolo[1,5-a]pyridin-8-yl]-3,6-dihydro-2H-pyridin-1-yl]-4,4,4-trifluoro-butan-1-one] are within 1.5-fold of each other in IC50: 29.9 nM for the first, 23.3 nM for the second.

Compared with `O=C(CCC(F)(F)F)N1CC=C(c2cccn3nc(Nc4ccc(C(=O)N5CCC6(CCNCC6)C5)cc4)nc23)CC1` [Example 2-187, 1-[4-[2-[4-(2,8-diazaspiro[4.5]decane-2-carbonyl)anilino]-[1,2,4]triazolo[1,5-a]pyridin-8-yl]-3,6-dihydro-2H-pyridin-1-yl]-4,4,4-trifluoro-butan-1-one], `O=C(CCC(F)(F)F)N1CC=C(c2cccn3nc(Nc4ccc(C(=O)N5CCC6(CCCNC6)CC5)cc4)nc23)CC1` [Example 2-191, 1-[4-[2-[4-(2,9-diazaspiro[5.5]undecane-9-carbonyl)anilino]-[1,2,4]triazolo[1,5-a]pyridin-8-yl]-3,6-dihydro-2H-pyridin-1-yl]-4,4,4-trifluoro-butan-1-one] is 10-fold lower in IC50: 652 nM for the first, 63.7 nM for the second. The second is the more potent here.

First: O=C(NC1COC2(CCNCC2)C1)c1ccc(Nc2nc3c(C4=CCN(C(=O)CCC(F)(F)F)CC4)cccn3n2)cc1 (stereo not shown) [Example 2-188, N-(1-oxa-8-azaspiro[4.5]decan-3-yl)-4-[[8-[1-(4,4,4-trifluorobutanoyl)-3,6-dihydro-2H-pyridin-4-yl]-[1,2,4]triazolo[1,5-a]pyridin-2-yl]amino]benzamide]
Second: O=C(NCC1CCC2(CCNCC2)CO1)c1ccc(Nc2nc3c(C4=CCN(C(=O)CCC(F)(F)F)CC4)cccn3n2)cc1 (stereo not shown) [Example 2-189, N-(2-oxa-9-azaspiro[5.5]undecan-3-ylmethyl)-4-[[8-[1-(4,4,4-trifluorobutanoyl)-3,6-dihydro-2H-pyridin-4-yl]-[1,2,4]triazolo[1,5-a]pyridin-2-yl]amino]benzamide]
The IC50 of the first is 2.2-fold higher: 239 nM for the first, 110 nM for the second.

First: O=C(CCC(F)(F)F)N1CC=C(c2cccn3nc(Nc4ccc(C(=O)N5CCCC6(CNCCO6)C5)cc4)nc23)CC1 (stereo not shown) [Example 2-190, 4,4,4-trifluoro-1-[4-[2-[4-(1-oxa-4,8-diazaspiro[5.5]undecane-8-carbonyl)anilino]-[1,2,4]triazolo[1,5-a]pyridin-8-yl]-3,6-dihydro-2H-pyridin-1-yl]butan-1-one]
Second: O=C(CCC(F)(F)F)N1CC=C(c2cccn3nc(Nc4ccc(C(=O)N5CCCNCC5)cc4)nc23)CC1 [Example 2-195, 1-[4-[2-[4-(1,4-diazepane-1-carbonyl)anilino]-[1,2,4]triazolo[1,5-a]pyridin-8-yl]-3,6-dihydro-2H-pyridin-1-yl]-4,4,4-trifluoro-butan-1-one]
The IC50 of the first is 4-fold lower: 40.9 nM for the first, 163 nM for the second.

`O=C(NCC1CCCNC1)c1ccc(Nc2nc3c(C4=CCN(C(=O)CCC(F)(F)F)CC4)cccn3n2)cc1` (stereo not shown) [Example 2-192, N-(3-piperidylmethyl)-4-[[8-[1-(4,4,4-trifluorobutanoyl)-3,6-dihydro-2H-pyridin-4-yl]-[1,2,4]triazolo[1,5-a]pyridin-2-yl]amino]benzamide] and `O=C(NCCC1CCCNC1)c1ccc(Nc2nc3c(C4=CCN(C(=O)CCC(F)(F)F)CC4)cccn3n2)cc1` (stereo not shown) [Example 2-193, N-[2-(3-piperidyl)ethyl]-4-[[8-[1-(4,4,4-trifluorobutanoyl)-3,6-dihydro-2H-pyridin-4-yl]-[1,2,4]triazolo[1,5-a]pyridin-2-yl]amino]benzamide] are within 1.5-fold of each other in IC50: 213 nM for the first, 278 nM for the second.

Compared with `NCCNC(=O)c1ccc(Nc2nc3c(C4=CCN(C(=O)CCC(F)(F)F)CC4)cccn3n2)cc1` [Example 2-194, N-(2-aminoethyl)-4-[[8-[1-(4,4,4-trifluorobutanoyl)-3,6-dihydro-2H-pyridin-4-yl]-[1,2,4]triazolo[1,5-a]pyridin-2-yl]amino]benzamide], `CC1CN(C(=O)c2ccc(Nc3nc4c(C5=CCN(C(=O)CCC(F)(F)F)CC5)cccn4n3)cc2)CCN1` (stereo not shown) [Example 2-196, 4,4,4-trifluoro-1-[4-[2-[4-(3-methylpiperazine-1-carbonyl)anilino]-[1,2,4]triazolo[1,5-a]pyridin-8-yl]-3,6-dihydro-2H-pyridin-1-yl]butan-1-one] is 3.2-fold lower in IC50: 94.2 nM for the first, 29.9 nM for the second.

Compared with `O=C(CCC(F)(F)F)N1CC=C(c2cccn3nc(Nc4ccc(C(=O)N5CCC6(CCN6)CC5)cc4)nc23)CC1` [Example 2-197, 1-[4-[2-[4-(1,7-diazaspiro[3.5]nonane-7-carbonyl)anilino]-[1,2,4]triazolo[1,5-a]pyridin-8-yl]-3,6-dihydro-2H-pyridin-1-yl]-4,4,4-trifluoro-butan-1-one], `O=C(CCC(F)(F)F)N1CC=C(c2cccn3nc(Nc4ccc(C(=O)N5CCC6(CCCN6)CC5)cc4)nc23)CC1` [Example 2-198, 1-[4-[2-[4-(1,8-diazaspiro[4.5]decane-8-carbonyl)anilino]-[1,2,4]triazolo[1,5-a]pyridin-8-yl]-3,6-dihydro-2H-pyridin-1-yl]-4,4,4-trifluoro-butan-1-one] is 5.5-fold lower in IC50: 295 nM for the first, 53.9 nM for the second. The second is the more potent here.

Going from `CN(Cc1ccccn1)C(=O)c1ccc(Nc2nc3c(C4=CCN(C(=O)CCC(F)(F)F)CC4)cccn3n2)cc1` [Example 2-199, N-methyl-N-(2-pyridylmethyl)-4-[[8-[1-(4,4,4-trifluorobulanoyl)-3,6-dihydro-2H-pyridin-4-yl]-[1,2,4]triazolo[1,5-a]pyridin-2-yl]amino]benzamide] to `Cn1ccnc1CN1CCN(C(=O)c2ccc(Nc3nc4c(C5=CCN(C(=O)CCC(F)(F)F)CC5)cccn4n3)cc2)CC1` [Example 2-203, 4,4,4-trifluoro-1-[4-[2-[4-[4-[(1-methylimidazol-2-yl)methyl]piperazine-1-carbonyl]anilino]-[1,2,4]triazolo[1,5-a]pyridin-8-yl]-3,6-dihydro-2H-pyridin-1-yl]butan-1-one], the IC50 rises from 4.2 nM to 30.1 nM (7.2-fold). The first is the more potent here.

First: O=C(CCC(F)(F)F)N1CC=C(c2cccn3nc(Nc4ccc(C(=O)N5CCN6CCCC6C5)cc4)nc23)CC1 (stereo not shown) [Example 2-200, 1-[4-[2-[4-(3,4,6,7,8,8a-hexahydro-1H-pyrrolo[1,2-a]pyrazine-2-carbonyl)anilino]-[1,2,4]triazolo[1,5-a]pyridin-8-yl]-3,6-dihydro-2H-pyridin-1-yl]-4,4,4-trifluoro-butan-1-one]
Second: O=C(CCC(F)(F)F)N1CC=C(c2cccn3nc(Nc4ccc(C(=O)N5CCN(C6CC6)CC5)cc4)nc23)CC1 [Example 2-202, 1-[4-[2-[4-(4-cyclopropylpiperazine-1-carbonyl)anilino]-[1,2,4]triazolo[1,5-a]pyridin-8-yl]-3,6-dihydro-2H-pyridin-1-yl]-4,4,4-trifluoro-butan-1-one]
The IC50 of the first is 2.8-fold lower: 4.1 nM for the first, 11.5 nM for the second.

For `CN1CC2CC(C1)N(C(=O)c1ccc(Nc3nc4c(C5=CCN(C(=O)CCC(F)(F)F)CC5)cccn4n3)cc1)C2` (stereo not shown) [Example 2-201, 4,4,4-trifluoro-1-[4-[2-[4-(3-methyl-3,6-diazabicyclo[3.2.1]octane-6-carbonyl)anilino]-[1,2,4]triazolo[1,5-a]pyridin-8-yl]-3,6-dihydro-2H-pyridin-1-yl]butan-1-one], the IC50 was 6 nM.
